These results are taken from paper PMC9204775 (ACS Chemical Neuroscience, 2022).

The target of one experiment is T1, human (α4)2(β2)3 nAChR (Homo sapiens, UniProt P17787+P43681).
T1 construct: expressed in transfected cells; host or cells: Xenopus laevis oocytes (cRNA injection)
The experiment is described as follows: Two-electrode voltage-clamp recording, (α4)2(β2)3 nAChRs expressed in Xenopus oocytes (α4:β2 cRNA 1:10). Particulars: for stoichiometry selectivity of antagonism, (α4)2(β2)3 versus (α4)3(β2)2 nAChRs: 100 μM antibiotic coapplied with EC50 concentration of ACh, compared with (α4)3(β2)2; for remaining activity at 100 µM: read-out: (α4)2(β2)3 nAChR (% control response to ACh). Type of experiment: cell-based. Background: Two-electrode voltage clamp holds a large cell at a set potential and records current.

The target of a further experiment is human (α4)3(β2)2 nAChR (Homo sapiens, UniProt P17787+P43681). The experiment is described as follows: Two-electrode voltage-clamp recording, (α4)3(β2)2 nAChRs expressed in Xenopus oocytes (α4:β2 cRNA 10:1). Particulars: for remaining activity at 100 µM: read-out: (α4)3(β2)2 nAChR (% control response ACh).
In the next experiment the test system is human α7 nAChRs. As to conditions: previous studies; cited from earlier work.
Another experiment addresses T2, human α4β2 nAChR (Homo sapiens, UniProt P17787+P43681).
T2 construct: expressed in transfected cells; host or cells: Xenopus laevis oocytes (cRNA injection)
The experiment is described as follows: Two-electrode voltage-clamp recording, heterologously expressed α4β2 nAChRs (stoichiometry not distinguished). Type of experiment: cell-based. As to conditions: wild-type, no ACh.

Experiment [1] has as its target α4β2 nAChRs containing mutated α4^L283A (Homo sapiens, UniProt P17787+P43681, L283A). Particulars: no ACh. An excerpt:
(§1) Human nAChR subunit cDNAs in plasmid expression vector pSP64GL (pSP64GL-α4 and pSP64GL-β2) have been described previously.[18] […] Note that the numbering of these amino acids in the human nAChR α4 and β2 subunits is based on the intact protein sequence (including the signal sequence), as indicated in the EMBL/GenBank database entries NP_000735.1 and NP_000739.1, respectively.

Experiment [2] concerns the target α4β2 nAChRs containing mutated α4^S284A (Homo sapiens, UniProt P17787+P43681, S284A). Particulars: no ACh.
From the text: as §1

Experiment [3] has as its target α4β2 nAChRs containing the β2^V278A subunit (Homo sapiens, UniProt P17787+P43681, V278A). Particulars: no ACh.
From the text: as §1

Setting [4] is: 100 μM antibiotic coapplied with a range of ACh concentrations.

Chain of human (α4)3(β2)2 nAChR (P43681 27-627): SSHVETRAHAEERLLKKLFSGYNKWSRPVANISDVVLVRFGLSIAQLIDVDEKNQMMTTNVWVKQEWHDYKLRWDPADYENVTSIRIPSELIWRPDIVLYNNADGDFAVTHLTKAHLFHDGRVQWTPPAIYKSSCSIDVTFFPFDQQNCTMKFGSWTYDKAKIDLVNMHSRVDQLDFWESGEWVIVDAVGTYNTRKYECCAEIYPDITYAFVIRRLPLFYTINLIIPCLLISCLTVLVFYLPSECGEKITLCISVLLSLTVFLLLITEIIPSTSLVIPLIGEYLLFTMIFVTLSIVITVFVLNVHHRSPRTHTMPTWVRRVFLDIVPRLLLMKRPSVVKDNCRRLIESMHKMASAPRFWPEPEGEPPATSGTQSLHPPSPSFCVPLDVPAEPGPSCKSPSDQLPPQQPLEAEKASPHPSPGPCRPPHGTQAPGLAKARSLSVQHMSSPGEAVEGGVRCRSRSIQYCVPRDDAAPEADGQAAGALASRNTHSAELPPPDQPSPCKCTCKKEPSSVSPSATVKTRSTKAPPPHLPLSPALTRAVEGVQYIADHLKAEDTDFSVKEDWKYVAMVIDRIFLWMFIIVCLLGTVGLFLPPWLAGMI
Chain of human (α4)3(β2)2 nAChR (P17787 26-502): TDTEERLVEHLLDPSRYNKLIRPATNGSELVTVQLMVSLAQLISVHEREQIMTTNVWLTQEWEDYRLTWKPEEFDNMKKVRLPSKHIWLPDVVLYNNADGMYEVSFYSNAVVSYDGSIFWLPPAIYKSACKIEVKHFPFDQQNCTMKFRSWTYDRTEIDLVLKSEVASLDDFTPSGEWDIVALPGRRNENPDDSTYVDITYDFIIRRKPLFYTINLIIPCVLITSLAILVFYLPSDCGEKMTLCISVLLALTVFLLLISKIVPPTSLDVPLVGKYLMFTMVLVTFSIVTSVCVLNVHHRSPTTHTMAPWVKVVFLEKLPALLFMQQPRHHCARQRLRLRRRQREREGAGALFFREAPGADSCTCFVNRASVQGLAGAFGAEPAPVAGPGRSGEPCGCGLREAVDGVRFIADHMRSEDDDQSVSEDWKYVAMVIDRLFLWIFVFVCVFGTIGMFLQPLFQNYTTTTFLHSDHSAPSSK
T1 sequence (P43681 27-627): as the sequence (P43681 27-627) above
T1 sequence (P17787 26-502): as the sequence (P17787 26-502) above
Chain of α4β2 nAChRs containing mutated α4^L283A (P43681 27-627 L283A): as the sequence (P43681 27-627) above, with L257A counted along it
Chain of α4β2 nAChRs containing mutated α4^L283A (P17787 26-502): as the sequence (P17787 26-502) above
Chain of α4β2 nAChRs containing the β2^V278A subunit (P43681 27-627): as the sequence (P43681 27-627) above
Chain of α4β2 nAChRs containing the β2^V278A subunit (P17787 26-502 V278A): as the sequence (P17787 26-502) above, with V253A counted along it
T2 sequence (P43681 27-627): as the sequence (P43681 27-627) above
T2 sequence (P17787 26-502): as the sequence (P17787 26-502) above
Chain of α4β2 nAChRs containing mutated α4^S284A (P43681 27-627 S284A): as the sequence (P43681 27-627) above, with S258A counted along it
Chain of α4β2 nAChRs containing mutated α4^S284A (P17787 26-502, stated change not applied): as the sequence (P17787 26-502) above
Description for human (α4)2(β2)3 nAChR: (§2) To achieve heterologous expression of human α4β2 nAChRs in two distinct subunit stoichiometries [(α4)2(β2)3 and (α4)3(β2)2], a well-established protocol was employed in which Xenopus laevis oocytes were injected with α4 and β2 cRNA in ratios of 1:10 and 10:1, respectively.[19],[20] […] Oocytes were injected, using a Drummond variable volume microinjector, with 32.2 nL of cRNA containing either a mixture of 30 ng/μL human α4 and 300 ng/μL human β2 or 300 ng/μL human α4 and 30 ng/μL human β2 cRNAs.
(§3) Xenopus were anesthetized by immersion in 0.2% MS222 for 15 min (or until complete anesthesia was confirmed by absence of leg-withdrawal and righting reflex), followed by cranial concussion, decapitation, and pithing. Xenopus oocytes were isolated, maintained, and injected with cRNA, as described previously.[21] […] Application of compounds was controlled by LabChart software (AD Instruments) using a BPS-8 solenoid valve solution exchange system (ALA Scientific Inc.). Typically, agonists were applied for 5 s or until a plateau in the response was observed. Antagonists were preapplied for 30 s and then coapplied with agonist for 5 s or until a plateau in the response was observed.
(§4) For individual pairwise comparisons, statistical significance was determined using unpaired Student’s t tests or ANOVA for multiple comparisons. Dose–response curves were fitted by GraphPad Prism, using the following equation (where I is the current, Imax is the maximum current, the EC50 is the concentration of agonist that elicits a half-maximal response, and nH is the Hill coefficient): [drawing 1]
Description for human (α4)3(β2)2 nAChR: as §2, §3, §4
Description for human α4β2 nAChR: as §2
Xenopus oocytes were isolated, maintained, and injected with cRNA, as described previously.[21] Two-electrode voltage-clamp recordings were performed using a Warner Instruments OC-725C amplifier (Harvard Apparatus) with the oocyte membrane potential held at −60 mV, as described previously.[22] Oocytes were continuously perfused with a modified Ringer’s solution (115 mM NaCl, 2.5 mM KCl, 1.8 mM BaCl2, and 10 mM HEPES, pH 7.3). Application of compounds was controlled by LabChart software (AD Instruments) using a BPS-8 solenoid valve solution exchange system (ALA Scientific Inc.). Typically, agonists were applied for 5 s or until a plateau in the response was observed. Antagonists were preapplied for 30 s and then coapplied with agonist for 5 s or until a plateau in the response was observed.

In the case of `CCn1cc(C(=O)O)c(=O)c2cc(F)c(N3CCNCC3)cc21` [norfloxacin], the “stoichiometry selectivity of antagonism, (α4)2(β2)3 versus (α4)3(β2)2 nAChRs” value (shortened to “stoichiometry selectivity of antagonism”) on human (α4)2(β2)3 nAChR is “significantly greater antagonism on (α4)2(β2)3 nAChRs than on (α4)3(β2)2 nAChRs”. The remaining activity at 100 µM at human (α4)2(β2)3 nAChR was 13 ± 1%; at human (α4)3(β2)2 nAChR, 54.1 ± 3.4%.

Regarding `CCN1CCN(c2cc3c(cc2F)c(=O)c(C(=O)O)cn3C2CC2)CC1` [enrofloxacin], on human (α4)2(β2)3 nAChR, the “stoichiometry selectivity of antagonism” value is reported as “significantly greater antagonism on (α4)2(β2)3 nAChRs than on (α4)3(β2)2 nAChRs” and the remaining activity at 100 µM turned out to be 13.2 ± 0.46%. In addition, the remaining activity at 100 µM on human (α4)3(β2)2 nAChR was 64.8 ± 1.01%.

In the case of `CC(=O)OCC[N+](C)(C)C` [ACh, acetylcholine], the “Hill coefficient of ACh dose-response curve” value on human (α4)3(β2)2 nAChR (absence of antibiotic) was found to be 0.74 ± 0.

For `CN1CCN(c2cc3c(cc2F)c(=O)c(C(=O)O)cn3-c2ccc(F)cc2)CC1` [difloxacin], the “stoichiometry selectivity of antagonism” value at human (α4)2(β2)3 nAChR is listed as “significantly greater antagonism on (α4)2(β2)3 nAChRs than on (α4)3(β2)2 nAChRs”. The values for the remaining activity at 100 µM on human (α4)2(β2)3 nAChR and at human (α4)3(β2)2 nAChR were 39.9 ± 3.02% and 57.2 ± 0.97%, respectively.

With `CCn1cc(C(=O)O)c(=O)c2cc(F)c(N3CCN(C)CC3)cc21` [pefloxacin], the “mode of action on α7 nAChR” value with human α7 nAChRs is reported as “noncompetitive antagonist”.

Take `CCn1cc(C(=O)O)c(=O)c2cc(F)c(N3CCNCC3)nc21` [enoxacin]: on human (α4)2(β2)3 nAChR, the “stoichiometry selectivity of antagonism” value was “significantly greater antagonism on (α4)2(β2)3 nAChRs than on (α4)3(β2)2 nAChRs”. The values for the remaining activity at 100 µM on human (α4)2(β2)3 nAChR and on human (α4)3(β2)2 nAChR were 23.5 ± 1.65% and 74.6 ± 1.88%, respectively.

For `CCn1cc(C(=O)O)c(=O)c2cc3c(cc21)OCO3` [oxolinic acid], on human (α4)2(β2)3 nAChR, the “stoichiometry selectivity of antagonism” value is “no significant difference”. Besides, the remaining activity at 100 µM at human (α4)2(β2)3 nAChR was found to be 59.5 ± 0.99%; at human (α4)3(β2)2 nAChR, 60.4 ± 0.72%.

On to `C[C@@H]1CN(c2c(F)c(N)c3c(=O)c(C(=O)O)cn(C4CC4)c3c2F)C[C@H](C)N1` [sparfloxacin], for which the “stoichiometry selectivity of antagonism” value on human (α4)2(β2)3 nAChR was “significantly greater antagonism on (α4)2(β2)3 nAChRs than on (α4)3(β2)2 nAChRs”. In addition, the remaining activity at 100 µM is 17.4 ± 1.12% on human (α4)2(β2)3 nAChR and 58.4 ± 1.72% on human (α4)3(β2)2 nAChR.

In the case of `CCn1nc(C(=O)O)c(=O)c2cc3c(cc21)OCO3` [cinoxacin], the “Hill coefficient of ACh dose-response curve in the presence of the antibiotic” value at human (α4)2(β2)3 nAChR (100 μM antibiotic) worked out at 1.0 ± 0.1; on human (α4)3(β2)2 nAChR (100 μM antibiotic) it was 0.62 ± 0.2. Besides, the “maximal normalized ACh response in the presence of the antibiotic” value on human (α4)2(β2)3 nAChR (setting [4]) stood at 76.0 ± 1.5%; at human (α4)3(β2)2 nAChR (setting [4]), 80.0 ± 0.9%. Further, the remaining activity at 100 µM at human (α4)2(β2)3 nAChR was 58.2 ± 1.2%; at human (α4)3(β2)2 nAChR, 60.4 ± 0.61%. The “effect when applied alone” value (on human α4β2 nAChR; in experiment [1]; in experiment [2]; in experiment [3]) was “no effect” each time.
